Results as given in patent US9216999B2, “Substituted pyrrolo[2,3-h][1,6]naphthyridines and compositions thereof as JAK inhibitors” (priority 2011, dated 2015).

Key:
Assay type in all cases: biochemical
Settings in all cases: ATP 100 μM
[1] = target: Tyk2 (Homo sapiens (Human), UniProt P29597); experiment: Enzyme assay (Assay Example^a 1), Tyk2
[2] = target: JAK2 (Homo sapiens (Human), UniProt O60674); experiment: Enzyme assay (Assay Example^a 1), JAK2
[3] = target: JAK3 (Homo sapiens (Human), UniProt P52333); experiment: Enzyme assay (Assay Example^a 1), JAK3
JAK3, sequence (P52333 whole entry): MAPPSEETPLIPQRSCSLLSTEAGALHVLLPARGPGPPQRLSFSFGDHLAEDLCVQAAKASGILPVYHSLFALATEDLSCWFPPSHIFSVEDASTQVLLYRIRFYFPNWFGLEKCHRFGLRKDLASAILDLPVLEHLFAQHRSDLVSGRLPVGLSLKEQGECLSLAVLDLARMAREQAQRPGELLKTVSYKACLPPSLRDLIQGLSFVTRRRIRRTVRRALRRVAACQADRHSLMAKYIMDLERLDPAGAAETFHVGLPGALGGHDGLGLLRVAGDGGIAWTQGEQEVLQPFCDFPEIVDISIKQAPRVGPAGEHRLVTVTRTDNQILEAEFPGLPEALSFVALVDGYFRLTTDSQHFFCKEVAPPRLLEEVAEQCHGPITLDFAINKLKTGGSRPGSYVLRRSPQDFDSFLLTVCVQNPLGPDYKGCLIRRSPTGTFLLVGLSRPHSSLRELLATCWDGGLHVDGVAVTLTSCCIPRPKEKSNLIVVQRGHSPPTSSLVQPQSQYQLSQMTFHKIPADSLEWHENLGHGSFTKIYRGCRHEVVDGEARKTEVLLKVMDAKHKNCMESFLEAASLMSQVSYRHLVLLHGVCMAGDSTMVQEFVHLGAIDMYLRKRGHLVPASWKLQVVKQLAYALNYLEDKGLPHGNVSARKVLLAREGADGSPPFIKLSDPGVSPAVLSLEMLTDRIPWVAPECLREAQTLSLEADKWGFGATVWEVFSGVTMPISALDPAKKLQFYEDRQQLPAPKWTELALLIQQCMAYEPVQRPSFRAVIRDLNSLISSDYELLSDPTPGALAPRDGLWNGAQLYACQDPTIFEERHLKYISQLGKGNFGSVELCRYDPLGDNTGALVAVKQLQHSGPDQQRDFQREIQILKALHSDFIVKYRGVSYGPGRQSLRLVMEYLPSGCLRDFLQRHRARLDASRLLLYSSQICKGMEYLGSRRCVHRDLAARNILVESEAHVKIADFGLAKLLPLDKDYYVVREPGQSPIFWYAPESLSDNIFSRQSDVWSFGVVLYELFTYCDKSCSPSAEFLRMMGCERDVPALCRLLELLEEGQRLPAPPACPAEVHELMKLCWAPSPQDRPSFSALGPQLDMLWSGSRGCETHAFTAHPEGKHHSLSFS

[4] = target: JAK1 (Homo sapiens (Human), UniProt P23458); experiment: Enzyme assay (Assay Example^a 1), JAK1

Tyk2, sequence (P29597 whole entry): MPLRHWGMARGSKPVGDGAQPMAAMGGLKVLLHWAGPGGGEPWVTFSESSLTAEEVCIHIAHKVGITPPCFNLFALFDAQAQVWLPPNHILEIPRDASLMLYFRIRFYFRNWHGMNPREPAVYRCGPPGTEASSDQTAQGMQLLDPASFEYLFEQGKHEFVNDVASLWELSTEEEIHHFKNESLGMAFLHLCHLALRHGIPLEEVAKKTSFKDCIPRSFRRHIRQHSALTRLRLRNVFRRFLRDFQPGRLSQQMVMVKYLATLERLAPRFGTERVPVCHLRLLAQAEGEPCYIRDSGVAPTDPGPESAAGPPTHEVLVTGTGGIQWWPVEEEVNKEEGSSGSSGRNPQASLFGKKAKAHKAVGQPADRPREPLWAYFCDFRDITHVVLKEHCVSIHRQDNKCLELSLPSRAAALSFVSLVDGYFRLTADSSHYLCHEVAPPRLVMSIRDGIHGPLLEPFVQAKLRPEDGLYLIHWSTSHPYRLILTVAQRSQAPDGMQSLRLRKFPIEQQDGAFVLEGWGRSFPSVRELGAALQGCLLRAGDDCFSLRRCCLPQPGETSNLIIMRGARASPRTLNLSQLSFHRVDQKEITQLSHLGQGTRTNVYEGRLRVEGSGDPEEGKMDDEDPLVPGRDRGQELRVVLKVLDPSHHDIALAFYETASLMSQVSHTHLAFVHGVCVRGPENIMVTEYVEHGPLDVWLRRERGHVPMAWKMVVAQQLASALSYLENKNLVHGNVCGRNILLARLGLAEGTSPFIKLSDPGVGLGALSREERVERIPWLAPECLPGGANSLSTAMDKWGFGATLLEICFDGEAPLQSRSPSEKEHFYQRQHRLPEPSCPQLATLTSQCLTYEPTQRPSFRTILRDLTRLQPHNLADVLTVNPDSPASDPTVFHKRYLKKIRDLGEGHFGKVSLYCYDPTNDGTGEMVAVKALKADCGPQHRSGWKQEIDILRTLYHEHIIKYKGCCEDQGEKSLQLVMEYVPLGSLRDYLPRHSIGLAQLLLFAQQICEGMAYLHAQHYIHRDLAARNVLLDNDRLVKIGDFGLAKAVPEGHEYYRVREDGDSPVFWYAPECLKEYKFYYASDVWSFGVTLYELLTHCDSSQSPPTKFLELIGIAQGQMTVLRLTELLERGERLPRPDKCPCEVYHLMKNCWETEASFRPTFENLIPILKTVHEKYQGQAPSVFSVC

Row | Compound | IC50 [1] [µM] | IC50 [2] [µM] | IC50 [3] [µM] | IC50 [4] [µM]
1 | FC(F)(F)CN(CC1CC1)C[C@H]1CC[C@H](c2nnn3cnc4[nH]ccc4c23)CC1 [compound 415, N-{[trans-4-(7H-pyrrolo[3,2-e][1,2,3]triazolo[1,5-c]pyrimidin-1-yl)cyclohexyl]methyl}-N-(cyclopropylmethyl)-2,2,2-trifluoroethanamine] | > 1 | 0.095 | > 1 | 0.03
2 | O=S(=O)(O)C[C@H]1CC[C@H](c2nnn3cnc4[nH]ccc4c23)CC1 [compound 416, [trans-4-(7H-Pyrrolo[3,2-e][1,2,3]triazolo[1,5-c]pyrimidin-1-yl)cyclohexyl]methanesulfonic acid] | 0.68 | 0.047 | > 1 | 0.029
3 | O=S(=O)(C[C@H]1CC[C@H](c2nnn3cnc4[nH]ccc4c23)CC1)NC1CC1 [compound 417, 1-[trans-4-(7H-Pyrrolo[3,2-e][1,2,3]triazolo[1,5-c]pyrimidin-1-yl)cyclohexyl]-N-cyclopropylmethanesulfonamide] | 0.42 | 0.026 | 0.38 | 0.0078
4 | CN(C)S(=O)(=O)C[C@H]1CC[C@H](c2nnn3cnc4[nH]ccc4c23)CC1 [compound 418, 1-[trans-4-(7H-pyrrolo[3,2-e][1,2,3]triazolo[1,5-c]pyrimidin-1-yl)cyclohexyl]-N,N-dimethylmethanesulfonamide] | 0.17 | 0.0084 | 0.33 | 0.0043
5 | N#CCNS(=O)(=O)C[C@H]1CC[C@H](c2nnn3cnc4[nH]ccc4c23)CC1 [compound 419, 1-[trans-4-(7H-pyrrolo[3,2-e][1,2,3]triazolo[1,5-c]pyrimidin-1-yl)cyclohexyl]-N-(cyanomethyl)methanesulfonamide] | 0.27 | 0.0061 | 0.069 | 0.0035
6 | O=S(=O)(C[C@H]1CC[C@H](c2nnn3cnc4[nH]ccc4c23)CC1)NCC(F)(F)F [compound 420, 1-[trans-4-(7H-pyrrolo[3,2-e][1,2,3]triazolo[1,5-c]pyrimidin-1-yl)cyclohexyl]-N-(2,2,2-trifluoroethyl)methanesulfonamide] | 0.3 | 0.015 | 0.41 | 0.0057
7 | FC(F)(F)COC1CN(C[C@H]2CC[C@H](c3nnn4cnc5[nH]ccc5c34)CC2)C1 [compound 421, 1-(trans-4-{[3-(2,2,2-Trifluoroethoxy)azetidin-1-yl]methyl}cyclohexyl)-7H-pyrrolo[3,2-e][1,2,3]triazolo[1,5-c]pyrimidine] | > 1 | 0.17 | > 1 | 0.01
8 | CC1(O)CN(C[C@H]2CC[C@H](c3nnn4cnc5[nH]ccc5c34)CC2)C1 [compound 422, 1-{[trans-4-(7H-pyrrolo[3,2-e][1,2,3]triazolo[1,5-c]pyrimidin-1-yl)cyclohexyl]methyl}-3-methylazetidin-3-ol] | 0.13 | 0.051 | > 1 | 0.0028
9 | CN(C)C1CN(C[C@H]2CC[C@H](c3nnn4cnc5[nH]ccc5c34)CC2)C1 [compound 423, 1-{[trans-4-(7H-pyrrolo[3,2-e][1,2,3]triazolo[1,5-c]pyrimidin-1-yl)cyclohexyl]methyl}-N,N-dimethylazetidin-3-amine] | > 1 | 0.72 | > 1 | 0.077
10 | CCN(C)C1CN(C[C@H]2CC[C@H](c3nnn4cnc5[nH]ccc5c34)CC2)C1 [compound 424, 1-{[trans-4-(7H-pyrrolo[3,2-e][1,2,3]triazolo[1,5-c]pyrimidin-1-yl)cyclohexyl]methyl}-N-ethyl-N-methylazetidin-3-amine] | > 1 | 0.48 | > 1 | 0.044
